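Cells were grown in 96-well plates and exposed to each compound for 48 hours at five concentrations; endpoints were interpolated linearly between bracketing concentrations, or set to the highest concentration if not reached. TGI marks complete inhibition of growth.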

Assay in all cases: NCI tumour cell line growth inhibition, 48 h
The subject of assay [1] is SNB-78 CNS.
The test system of assay [2] is M19-MEL melanoma.
Assay [3] has as its system KM12 colon.
The subject of assay [4] is SK-MEL-5 melanoma.
The subject of assay [5] is DMS 273 small cell lung.
Assay [6] relates to HCT-116 colon.
In assay [7] the test system is UACC-257 melanoma.
Assay [8] concerns KM20L2 colon.
The test system of assay [9] is A549 NSCLC.
Assay [10] relates to LXFL 529 NSCLC.
Assay [11] relates to HL-60(TB) leukemia.
The subject of assay [12] is XF 498 CNS.
Assay [13] deals with DLD-1 colon.
The test system of assay [14] is HT29 colon.
The test system of assay [15] is IGROV1 ovarian.
Assay [16] deals with BT-549 breast.

On to `CSc1ccc2c(cc1=O)[C@@H](NC(=O)c1cc(O)c(O)c(O)c1)CCc1cc(O)c(O)c(O)c1-2`, for which the TGI in assay [1] amounted to 91.8 µM; in [2], 29.9 µM; in assay [3], 46.8 µM; in [4] it was 36.1 µM; in [5], 39.9 µM; in assay [6], 29.4 µM. Besides, the TGI in assay [7] is 34.3 µM; in assay [8], > 100 µM; in [9] it was 92 µM; in assay [10], 37.8 µM; in assay [11] it was 40.7 µM; in assay [12], 39.4 µM. The TGI in [13] stood at 55.7 µM; in [14], 48.7 µM.

On to `C1=NC(N(Cc2ccccc2)Cc2ccccc2)N(Cc2ccccc2)N1` (stereo not drawn), for which the TGI in [1] is > 100 µM; in assay [2], 34.2 µM; in assay [3], 31.1 µM; in [4] it was 27.3 µM; in [5], 29.1 µM; in assay [6], 21.3 µM. The TGI is 33.5 µM in assay [7]; 30.8 µM in [8]; 33.6 µM in assay [15]; 37.3 µM in assay [9]; 30.7 µM in [10]; > 100 µM in assay [11]. Besides, the TGI in assay [13] came to 67.9 µM; in assay [14], 30.9 µM.

As to `CC(=O)OCCOCNC(=S)N/N=C/c1ccc([N+](=O)[O-])s1`, the TGI was > 100 µM in assay [1]; 34.1 µM in assay [2]; > 100 µM in [3]; 81.7 µM in assay [4]; 85.2 µM in assay [5]; 54 µM in assay [6]. Further, the TGI in [7] is 66.7 µM; in assay [8], > 100 µM; in [15], > 100 µM; in assay [9] it was > 100 µM; in assay [10], > 100 µM; in assay [11] it was 11.5 µM. The TGI in assay [12], in assay [13] and in assay [14] was > 100 µM in each case.

As for `CC(=O)O[C@@]12CO[C@@H]1CC(O)[C@@]1(C)C(=O)[C@H](O)C3=C(C)C(O)C[C@@](O)(C(OC(=O)c4ccccc4)C12)C3(C)C` (stereo partly drawn), the TGI was > 100 µM in assay [1]; > 100 µM in [2]; > 89.2 µM in [3]; > 100 µM in assay [4]; 19.2 µM in assay [6]; > 26.8 µM in assay [7]. Besides, the TGI in [8] was 3.31 µM; in assay [15] it was > 100 µM; in [9], > 100 µM; in [11], > 100 µM; in [16] it was > 100 µM; in assay [12] it was > 100 µM. In assay [14], the TGI amounted to 23.8 µM.

In the case of `CCOC(=O)CCC(NC(=O)c1ccc(NCc2ccc3nc(-c4ccccc4)c(Cl)nc3c2)cc1)C(=O)OCC` (stereo not drawn), the TGI in assay [1] is > 100 µM; in assay [2], 43.2 µM; in [3] it was > 100 µM; in assay [4], 23.7 µM; in [5], > 100 µM; in assay [6], > 100 µM. The TGI in assay [8] was > 100 µM; in assay [15], > 100 µM; in assay [9], > 100 µM; in [10], > 100 µM; in [11], > 100 µM; in [12], 20.4 µM. In addition, the TGI in [13] and in assay [14] was > 100 µM each time.

With `Cc1ccc(C(=O)NCc2ccccc2)cc1N=NN(C)C`, the TGI in assay [1], in assay [2], in assay [3], in assay [4], in [5] and in assay [6] was > 100 µM in each case. For the same molecule, the TGI in assay [7] is 88.2 µM; in assay [8] it was > 100 µM; in assay [15] it was > 100 µM; in assay [9] it was > 100 µM; in assay [10], > 100 µM; in [11] it was > 100 µM. Besides, the TGI in [16], in assay [13] and in assay [14] was > 100 µM in each case.

In the case of `NC(=O)c1cn(Cc2ccccc2)c(=O)n1Cc1ccccc1`, the TGI in [1], in assay [2], in assay [3], in assay [4], in assay [5] and in assay [6] was > 100 µM throughout. Further, the TGI in assay [7], in assay [8], in assay [15], in assay [9], in assay [10] and in [11] was > 100 µM each time. Moreover, the TGI in [12], in assay [13] and in assay [14] was > 100 µM each time.

With `CC(=O)O[C@]12CCCCCC1C1(O)C(O)CCCCC12` (stereo partly drawn), the TGI in [1], in [2], in [3], in assay [4], in assay [5] and in assay [7] was > 100 µM throughout. Also, the TGI in assay [8], in assay [9], in assay [10], in assay [11], in [12] and in assay [14] was > 100 µM each time.

Consider `COc1ccc2nc3cc(Cl)ccc3c(Sc3ccc(NC(C)=O)cc3)c2c1`, for which the TGI in assay [1] is 62.1 µM; in assay [2], > 22.2 µM; in assay [3], > 35.2 µM; in assay [4], > 45.5 µM; in [5], 21.6 µM; in assay [6] it was > 45.3 µM. Besides, the TGI in assay [7] was > 41 µM; in assay [8] it was > 42.1 µM; in [15], > 56 µM; in assay [9] it was > 100 µM; in assay [10], > 23.5 µM; in assay [11], 52 µM. Moreover, the TGI in assay [12] was > 25.2 µM; in [13], > 24.1 µM; in [14], > 100 µM.

Turning to `Cc1ccc(NC(=O)C(=O)C2C(=O)NC(=O)NC2=O)cc1C`, the TGI in assay [1], in assay [2], in [3], in assay [4], in assay [5] and in assay [6] was > 100 µM throughout. Also, the TGI in assay [7], in [8], in assay [15], in assay [9], in assay [10] and in assay [11] was > 100 µM throughout. The TGI in assay [12], in [13] and in assay [14] was > 100 µM in each case.

As to `CCCCCCCCCCCC(=O)OC[C@@H](C[As](=O)(O)O)OC(=O)CCCCCCCCCCC`, the TGI in assay [2] stood at 19.4 µM; in assay [3], 17.1 µM; in assay [4], 3.91 µM; in assay [5], 12.3 µM; in [6] it was 21.7 µM; in assay [7], 31.7 µM. Also, the TGI is 26.4 µM in assay [8]; 3.8 µM in assay [15]; 31.3 µM in assay [9]; 17.7 µM in assay [10]; > 30 µM in assay [11]; 9.91 µM in assay [16]. Moreover, the TGI in assay [12] turned out to be 29 µM; in assay [13], 33.3 µM; in [14], 25.3 µM.

Consider `O=C1c2ccccc2C(=O)N1C/C=N/NS(=O)(=O)c1ccc(Br)cc1`, for which the TGI in assay [1], in assay [2], in assay [3], in [4], in assay [5] and in [6] was > 100 µM throughout. Further, the TGI in assay [7], in [8], in assay [15], in assay [9], in [10] and in assay [11] was > 100 µM in each case. For the same molecule, the TGI in assay [12], in assay [13] and in [14] was > 100 µM throughout.

Consider `COc1cc(-c2nnc3n2NC=C(C(=O)O)S3)cc(OC)c1OC`, for which the TGI in assay [1] is > 100 µM; in [2], > 100 µM; in assay [3], > 100 µM; in [4], > 100 µM; in assay [5], > 82.9 µM; in [6], > 68.8 µM. Besides, the TGI in assay [7] was > 100 µM; in assay [8] it was > 100 µM; in assay [15], > 100 µM; in [9], > 100 µM; in [10], > 100 µM; in assay [11], > 73.4 µM. Besides, the values for the TGI in assay [12], in assay [13] and in assay [14] were > 100 µM, > 79.9 µM and > 100 µM, respectively.

As to `CC(=O)OC(CCC1(C)OC1COc1ccc(CCNC(=O)C=C(C)C)cc1)C(C)(C)OC(C)=O` (stereo not drawn), the TGI in assay [1] is > 100 µM; in assay [2], > 100 µM; in assay [3], 78.4 µM; in assay [4], 15.6 µM; in assay [5], > 100 µM; in [6], > 100 µM. For the same molecule, the TGI in assay [7] is 27.3 µM; in assay [8] it was > 100 µM; in assay [15], > 100 µM; in assay [9], > 100 µM; in assay [10] it was > 100 µM; in [11], > 56.7 µM. The TGI in assay [16] is 25.4 µM; in assay [12] it was 86.3 µM; in [14], > 100 µM.

Take `NCCCN(CCCN)CCc1cn(C(=O)c2ccccc2)cn1`: the TGI in assay [3] was 22.2 µM; in assay [4], 21 µM; in assay [6] it was > 51.2 µM; in assay [7], 25.2 µM; in assay [15], 17.4 µM; in assay [9] it was 26.7 µM. Also, the values for the TGI in [11], in assay [16] and in assay [14] were 10.8 µM, 35.1 µM and 29.5 µM, respectively.

With `CC(NC(=O)Cc1ccccc1)NC(=O)C(C)C(=O)NCc1ccccc1` (stereo not drawn), the TGI in assay [3], in [4], in [6], in assay [7], in [15] and in assay [9] was > 100 µM each time. Besides, the results for the TGI in assay [11], in [16] and in assay [14] were > 100 µM, 75 µM and > 100 µM, respectively.

Take `CC(=O)OCC1OC(n2c(C)c(N=Nc3ccc(Cl)cc3)c(C)c(C#N)c2=S)C(OC(C)=O)C(OC(C)=O)C1OC(C)=O` (stereo not drawn): the TGI in assay [3], in assay [4], in assay [6], in assay [7], in assay [15] and in assay [9] was > 100 µM throughout. The TGI is > 100 µM in [11], 52.3 µM in assay [16] and > 100 µM in [14].

For the molecule `C1COCCSC2=C(SCCO1)SC(=C1SC3=C(SCCOCCOCCS3)S1)S2`, the TGI in assay [1], in [3], in [4], in assay [5], in assay [6] and in assay [7] was > 100 µM throughout. Also, the TGI in assay [8] is > 100 µM; in assay [15], > 100 µM; in [9] it was > 100 µM; in [10], > 100 µM; in assay [11], > 100 µM; in assay [12], 73.3 µM. Also, the TGI in [13] and in assay [14] was > 100 µM in each case.
